Reference: patent US10385065B2, “Antibacterial compounds” (priority 2014, dated 2019)
≈ marks a conversion by molar mass, not a printed value. Like-named read-outs stand apart in the source and are kept apart here.

How the values were obtained:
Format in all cases: cell-based
[1] = tested on: Staphylococcus aureus ATCC 29213; experiment: MIC, broth microdilution, S. aureus ATCC 29213
[2] = tested on: Escherichia coli ATCC 25922; experiment: MIC, broth microdilution, E. coli ATCC 25922; conditions: ATCC25922, Table 1, wild type strain
S. aureus NRS1 MRSA = experiment: MIC, S. aureus NRS1; conditions: Staphylococcus aureus; Table 2; read-out: MIC S. aureus NRS1 MRSA AMG & TET resistant
[3] = tested on: S. aureus NRS127 MRSA LZD resistant; experiment: MIC, S. aureus NRS127; conditions: Staphylococcus aureus; Table 2
[4] = tested on: Haemophilus influenzae ATCC 49247; experiment: MIC, H. influenzae ATCC 49247; conditions: ATCC49247, Table 4
[5] = tested on: S. aureus VRS1 MRSA VAN resistant; experiment: MIC, S. aureus VRS1; conditions: Staphylococcus aureus, Table 2
[6] = tested on: S. aureus NRS482 MRSA FQ resistant; experiment: MIC, S. aureus NRS482; conditions: Staphylococcus aureus; Table 2
[7] = tested on: S. aureus (MRSA) ATCC 43300; experiment: MIC, S. aureus ATCC 43300; conditions: Staphylococcus aureus; Table 2; read-out: MIC S. aureus (MRSA) ATCC 43300 Heterogeneous MRSA strain
[8] = tested on: Enterococcus faecium ATCC 19434; experiment: MIC, E. faecium ATCC 19434; conditions: ATCC19434, Table 2
[9] = tested on: human hepatic cell line (HepG2 ATCC HB-8065); experiment: Human cell viability assay (CellTiter-Glo), HepG2; conditions: HepG2, 24 h incubation, tested over 1-128 μg/mL, read-out: IC50 values against HepG2
Experimental: Compounds are assessed for potential non-specific cytotoxic effects against a human hepatic cell line (HepG2 ATCC HB-8065). HepG2 cells are seeded at 20,000 cells/well in 96-well microtitre plates in minimal essential medium (MEM) supplemented with a final concentration of 10% FBS and 1 mM sodium pyruvate. After 24 h compound dilutions are prepared in Dulbecco's minimum essential media (DMEM) supplemented with final concentrations of 0.001% FBS, 0.3% bovine albumin and 0.02% HEPES and added to cells. Compounds are tested in two-fold serial dilutions over a final concentration range of 1-128 μg/mL in a final DMSO concentration of 1% vol/vol. Chlorpromazine is used as a positive control. Cells are incubated with compound at 37° C. and 5% CO2 for a further 24 h, after which time the CellTiter-Glo reagent (Promega) is added. Luminescence is measured on a BMG Omega plate reader. Data are analysed using GraphPad Prism software to determine the concentration of compound that inhibits cell viability by fifty percent (IC50).

[10] = tested on: S. aureus SACPX1-SP25 MSSA - FQ resistant; experiment: microbe, parasite or virus in culture; conditions: Staphylococcus aureus, ATCC 29213 / MSSA, read-out: MIC S. aureus SACPX1-SP25 MSSA - FQ resistant (isogenic mutant of ATCC 29213)
[11] = ATCC29213, Table 1, wild type strain, read-out: MIC S. aureus ATCC 29213
[12] = ATCC 29213 / MSSA, Table 2, read-out: MIC S. aureus (MSSA) ATCC 29213 CLSI control strain

Compound	MIC [1, 11] [µg/mL]	MIC [1, 12] [µg/mL]	MIC [2] [µg/mL]	MIC (S. aureus NRS1 MRSA) [µg/mL]	MIC [3] [µg/mL]	MIC [4] [µg/mL]	MIC [5] [µg/mL]	MIC [6] [µg/mL]	MIC [7] [µg/mL]	MIC [8] [µg/mL]	IC50 [9] [µg/mL]	MIC [10] [µg/mL]
Cc1c(-c2cc(F)c(N)cc2F)ccc2c3oc(CO)nc3c(=O)n(C3CC3)c12 [Compound 99, 7-(4-amino-2,5-difluorophenyl)-5-cyclopropyl-2-(hydroxymethyl)-6-methyloxazolo[4,5-c]quinolin-4-one]	< 1	< 1	1 to 10 (≈ 2.52 to 25.2 µM)	1 to 10 (≈ 2.52 to 25.2 µM)	1 to 10 (≈ 2.52 to 25.2 µM)	< 1	1 to 10 (≈ 2.52 to 25.2 µM)	< 1	< 1			
CCOC(=O)CNC(=O)c1ccc(-c2ccc3c4ocnc4c(=O)n(C4CC4)c3c2C)cc1 [Compound 30, ethyl-2-[{4-(5-cyclopropyl-6-methyl-4-oxo-oxazolo[4,5-c]quinolin-7-yl)benzoyl}amino]acetate]	1 to 10 (≈ 2.24 to 22.4 µM)	1 to 10 (≈ 2.24 to 22.4 µM)	> 100	1 to 10 (≈ 2.24 to 22.4 µM)	1 to 10 (≈ 2.24 to 22.4 µM)	1 to 10 (≈ 2.24 to 22.4 µM)	1 to 10 (≈ 2.24 to 22.4 µM)	1 to 10 (≈ 2.24 to 22.4 µM)	1 to 10 (≈ 2.24 to 22.4 µM)	> 100	10 to 100 (≈ 22.4 to 224 µM)	
Cc1c(-c2cc(F)c(N)cc2F)ccc2c3oc(CN(C)C)nc3c(=O)n(C3CC3)c12 [Compound 101, 7-(4-amino-2,5-difluoro-phenyl)-5-cyclopropyl-2-[(dimethylamino)methyl]-6-methyl-oxazolo[4,5-c]quinolin-4-one]	< 1	< 1	10 to 100 (≈ 23.6 to 236 µM)			1 to 10 (≈ 2.36 to 23.6 µM)		1 to 10 (≈ 2.36 to 23.6 µM)			10 to 100 (≈ 23.6 to 236 µM)	
NC1CCN(c2nc3c(cc2F)c2ocnc2c(=O)n3C2CC2)C1 (stereo not drawn) [Compound 80, 7-(3-aminopyrrolidin-1-yl)-5-cyclopropyl-8-fluoro-oxazolo[4,5-c][1,8]naphthyridin-4-one]	1 to 10 (≈ 3.04 to 30.4 µM)	1 to 10 (≈ 3.04 to 30.4 µM)	1 to 10 (≈ 3.04 to 30.4 µM)			10 to 100 (≈ 30.4 to 304 µM)				10 to 100 (≈ 30.4 to 304 µM)		10 to 100 (≈ 30.4 to 304 µM)
Cc1c(-c2ccc3[nH]cnc3c2)ccc2c3ocnc3c(=O)n(C3CC3)c12 [Compound 15, 7-(1H-benzimidazol-5-yl)-5-cyclopropyl-6-methyl-oxazolo[4,5-c]quinolin-4-one]	< 1	< 1	10 to 100 (≈ 28.1 to 281 µM)		< 1	1 to 10 (≈ 2.81 to 28.1 µM)		< 1				
Cc1nc2c(=O)n(C3CC3)c3cc(-c4ccc(CN)c(F)c4)c(F)cc3c2o1 [Compound 76, 7-[4-(aminomethyl)-3-fluoro-phenyl]-5-cyclopropyl-8-fluoro-2-methyl-oxazolo[4,5-c]quinolin-4-one]	< 1	< 1	1 to 10 (≈ 2.62 to 26.2 µM)	1 to 10 (≈ 2.62 to 26.2 µM)	1 to 10 (≈ 2.62 to 26.2 µM)	1 to 10 (≈ 2.62 to 26.2 µM)	10 to 100 (≈ 26.2 to 262 µM)	1 to 10 (≈ 2.62 to 26.2 µM)	< 1	10 to 100 (≈ 26.2 to 262 µM)		
C[C@H]1COc2c(-c3ccc(C(N)=O)cc3)ccc3c4ocnc4c(=O)n1c23 [Compound 96, 4-[(2S)-2-methyl-15-oxo-4,11-dioxa-1,13-diazatetracyclo[7.6.1.0^5,^16.0^10,^14]hexadeca-5(16),6,8,10(14),12-pentaen-6-yl]benzamide]	1 to 10 (≈ 2.77 to 27.7 µM)	1 to 10 (≈ 2.77 to 27.7 µM)	10 to 100 (≈ 27.7 to 277 µM)	1 to 10 (≈ 2.77 to 27.7 µM)	1 to 10 (≈ 2.77 to 27.7 µM)	1 to 10 (≈ 2.77 to 27.7 µM)	1 to 10 (≈ 2.77 to 27.7 µM)	1 to 10 (≈ 2.77 to 27.7 µM)	1 to 10 (≈ 2.77 to 27.7 µM)	10 to 100 (≈ 27.7 to 277 µM)	10 to 100 (≈ 27.7 to 277 µM)	
Cc1nc2c(=O)n(C3CC3)c3c(C)c(-c4cc(F)c(C(N)=O)cc4F)ccc3c2o1 [Compound 35, 4-(5-cyclopropyl-2,6-dimethyl-4-oxo-oxazolo[4,5-c]quinolin-7-yl)-2,5-difluoro-benzamide]	< 1	< 1	1 to 10 (≈ 2.44 to 24.4 µM)	1 to 10 (≈ 2.44 to 24.4 µM)		1 to 10 (≈ 2.44 to 24.4 µM)		1 to 10 (≈ 2.44 to 24.4 µM)	< 1	10 to 100 (≈ 24.4 to 244 µM)	10 to 100 (≈ 24.4 to 244 µM)	
Cc1nc2c(=O)n(C3CC3)c3cc(N4CCC(N)CC4)c(F)cc3c2o1 [Compound 49, 7-(4-amino-1-piperidyl)-5-cyclopropyl-8-fluoro-2-methyl-oxazolo[4,5-c]quinolin-4-one]	1 to 10 (≈ 2.81 to 28.1 µM)	1 to 10 (≈ 2.81 to 28.1 µM)	1 to 10 (≈ 2.81 to 28.1 µM)	10 to 100 (≈ 28.1 to 281 µM)	10 to 100 (≈ 28.1 to 281 µM)	1 to 10 (≈ 2.81 to 28.1 µM)	> 100	10 to 100 (≈ 28.1 to 281 µM)	1 to 10 (≈ 2.81 to 28.1 µM)	10 to 100 (≈ 28.1 to 281 µM)	10 to 100 (≈ 28.1 to 281 µM)	
CC(=O)OCc1nc2c(=O)n(C3CC3)c3c(C)c(-c4cc(F)c(N)cc4F)ccc3c2o1 [Compound 98, [7-(4-amino-2,5-difluorophenyl)-5-cyclopropyl-6-methyl-4-oxo-4H,5H-[1,3]oxazolo[4,5-c]quinolin-2-yl]methyl acetate]	< 1	< 1	1 to 10			1 to 10		< 1			> 100	
Cc1nc2c(=O)n(C3CC3)c3c(C)c(-c4ccc(C(C)(C)N)cc4)ccc3c2o1 [Compound 28, 7-[4-(2-aminopropan-2-yl)phenyl]-5-cyclopropyl-2,6-dimethyloxazolo[4,5-c]quinolin-4-one]	10 to 100 (≈ 25.8 to 258 µM)	1 to 10 (≈ 2.58 to 25.8 µM)	10 to 100 (≈ 25.8 to 258 µM)			1 to 10 (≈ 2.58 to 25.8 µM)				10 to 100 (≈ 25.8 to 258 µM)	10 to 100 (≈ 25.8 to 258 µM)	
Nc1ccc(-c2cc3c(cc2F)c2ocnc2c(=O)n3C2CC2)cc1F [Compound 71, 7-(4-amino-3-fluoro-phenyl)-5-cyclopropyl-8-fluoro-oxazolo[4,5-c]quinolin-4-one]	1 to 10 (≈ 2.83 to 28.3 µM)	1 to 10 (≈ 2.83 to 28.3 µM)	1 to 10 (≈ 2.83 to 28.3 µM)			< 1				10 to 100 (≈ 28.3 to 283 µM)	> 100	
Cc1c(-c2ccc(N)cc2)ccc2c3ocnc3c(=O)n(C3CC3)c12 [Compound 40, 7-(4-aminophenyl)-5-cyclopropyl-6-methyl-oxazolo[4,5-c]quinolin-4-one]	< 1	< 1	1 to 10 (≈ 3.02 to 30.2 µM)			1 to 10 (≈ 3.02 to 30.2 µM)				> 100	> 100	
Cc1c(-c2ccc(C(=O)NCC(=O)O)cc2)ccc2c3ocnc3c(=O)n(C3CC3)c12 [Compound 31, 2-[{4-(5-cyclopropyl-6-methyl-4-oxo-oxazolo[4,5-c]quinolin-7-yl)benzoyl}amino]acetic acid]	> 100	> 100	> 100			> 100		> 100				
Cc1nc2c(=O)n(C3CC3)c3c(C)c(-c4ccc(C#N)cc4F)ccc3c2o1 [Compound 33, 4-(5-cyclopropyl-2,6-dimethyl-4-oxo-oxazolo[4,5-c]quinolin-7-yl)-3-fluoro-benzonitrile]	< 1	< 1	> 100			10 to 100 (≈ 26.8 to 268 µM)				> 100	10 to 100 (≈ 26.8 to 268 µM)	
